Laboratory results from the kinase profiling compilation of Christmann-Franck et al. (2016).
“And” between values parts separate entries of the source, which are not always exact repeats. Identical values can stand only once.

Assays:
Test in all cases: radiometric filter-binding kinase assay, Kinase HotSpot
Conditions in all cases: compound 0.5 µM; ATP 10 µM
FLT1 (human) = FLT1 (human) (UniProt P17948)
EPHA1 (human) = EPHA1 (human) (UniProt P21709)
BRSK1 (human) = BRSK1 (human) (UniProt Q8TDC3)
MAP2K2 (human) = MAP2K2 (human) (UniProt P36507)
Chain of MAP2K2 (human) (P36507 whole entry, looked up): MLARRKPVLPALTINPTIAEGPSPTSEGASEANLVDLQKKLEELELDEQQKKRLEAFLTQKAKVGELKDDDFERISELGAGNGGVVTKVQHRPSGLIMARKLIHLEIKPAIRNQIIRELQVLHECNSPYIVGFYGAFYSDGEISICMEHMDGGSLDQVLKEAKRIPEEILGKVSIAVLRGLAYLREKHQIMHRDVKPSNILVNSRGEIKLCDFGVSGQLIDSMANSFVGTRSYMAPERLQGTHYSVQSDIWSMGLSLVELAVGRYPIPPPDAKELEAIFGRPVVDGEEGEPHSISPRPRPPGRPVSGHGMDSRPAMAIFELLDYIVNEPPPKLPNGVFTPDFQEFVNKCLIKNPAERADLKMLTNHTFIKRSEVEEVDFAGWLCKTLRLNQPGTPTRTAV

PRKCH (human) = PRKCH (human) (UniProt P24723)
STK33 (human) = STK33 (human) (UniProt Q9BYT3)
Chain of STK33 (human) (Q9BYT3 whole entry, looked up): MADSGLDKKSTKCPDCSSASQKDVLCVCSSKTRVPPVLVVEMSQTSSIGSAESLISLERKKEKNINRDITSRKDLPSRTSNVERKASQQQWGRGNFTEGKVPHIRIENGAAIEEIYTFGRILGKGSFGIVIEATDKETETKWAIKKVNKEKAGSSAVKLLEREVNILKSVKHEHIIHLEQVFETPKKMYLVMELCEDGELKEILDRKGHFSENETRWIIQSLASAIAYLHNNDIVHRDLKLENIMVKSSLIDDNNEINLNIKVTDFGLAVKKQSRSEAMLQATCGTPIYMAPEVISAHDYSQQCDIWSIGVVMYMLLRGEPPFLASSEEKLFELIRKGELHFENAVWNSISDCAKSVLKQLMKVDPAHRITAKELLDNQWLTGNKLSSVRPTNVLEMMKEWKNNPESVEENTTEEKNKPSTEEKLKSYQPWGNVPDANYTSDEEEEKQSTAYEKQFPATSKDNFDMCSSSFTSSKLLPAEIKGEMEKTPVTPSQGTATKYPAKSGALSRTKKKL

CDK2 CCNA2 (human) = CDK2 CCNA2 (human) (UniProt P24941+P20248)
MST1R (human) = MST1R (human) (UniProt Q04912)
MAP3K5 (human) = MAP3K5 (human) (UniProt Q99683)
DYRK2 (human) = DYRK2 (human) (UniProt Q92630)
VRK1 (human) = VRK1 (human) (UniProt Q99986)
PRKCD (human) = PRKCD (human) (UniProt Q05655)
DYRK1A (human) = DYRK1A (human) (UniProt Q13627)
CSNK2A2 (human) = CSNK2A2 (human) (UniProt P19784)
NEK1 (human) = NEK1 (human) (UniProt Q96PY6)
GRK6 (human) = GRK6 (human) (UniProt P43250)
JAK2 JH1 JH2 (human) = JAK2 JH1 JH2 (human) (UniProt O60674)
Chain of JAK2 JH1 JH2 (human) (O60674 whole entry, looked up): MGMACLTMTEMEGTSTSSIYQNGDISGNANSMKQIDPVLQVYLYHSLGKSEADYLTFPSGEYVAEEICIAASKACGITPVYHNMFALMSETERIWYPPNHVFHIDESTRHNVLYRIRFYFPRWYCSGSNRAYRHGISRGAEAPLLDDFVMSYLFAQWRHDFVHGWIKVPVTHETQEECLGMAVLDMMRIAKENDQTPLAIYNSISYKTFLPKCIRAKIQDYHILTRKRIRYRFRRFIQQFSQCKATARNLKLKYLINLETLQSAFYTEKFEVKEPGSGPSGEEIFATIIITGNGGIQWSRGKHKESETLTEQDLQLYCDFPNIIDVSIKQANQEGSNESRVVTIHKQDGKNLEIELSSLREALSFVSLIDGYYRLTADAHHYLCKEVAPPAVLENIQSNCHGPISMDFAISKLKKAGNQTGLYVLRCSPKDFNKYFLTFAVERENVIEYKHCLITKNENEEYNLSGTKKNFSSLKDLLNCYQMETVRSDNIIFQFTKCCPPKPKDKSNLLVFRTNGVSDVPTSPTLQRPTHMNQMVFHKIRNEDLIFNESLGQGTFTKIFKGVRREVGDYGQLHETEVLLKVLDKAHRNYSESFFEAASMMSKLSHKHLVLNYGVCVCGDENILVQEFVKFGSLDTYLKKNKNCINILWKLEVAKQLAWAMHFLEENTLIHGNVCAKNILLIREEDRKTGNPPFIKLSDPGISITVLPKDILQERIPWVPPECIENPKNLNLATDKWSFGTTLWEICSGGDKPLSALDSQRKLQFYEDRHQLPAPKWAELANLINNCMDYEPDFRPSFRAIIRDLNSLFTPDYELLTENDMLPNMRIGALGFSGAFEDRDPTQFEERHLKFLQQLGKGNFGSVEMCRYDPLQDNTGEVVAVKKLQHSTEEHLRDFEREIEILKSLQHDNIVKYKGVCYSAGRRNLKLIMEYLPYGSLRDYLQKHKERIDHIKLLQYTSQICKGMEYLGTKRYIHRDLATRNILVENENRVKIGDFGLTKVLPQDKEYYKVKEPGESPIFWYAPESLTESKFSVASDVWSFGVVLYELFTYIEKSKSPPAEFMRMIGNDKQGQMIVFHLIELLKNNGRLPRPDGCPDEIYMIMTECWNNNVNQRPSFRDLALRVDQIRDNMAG

CDK9 CCNK (human) = CDK9 CCNK (human) (UniProt O75909+P50750)
EPHA3 (human) = EPHA3 (human) (UniProt P29320)
DYRK1B (human) = DYRK1B (human) (UniProt Q9Y463)
RPS6KA2 KD1 KD2 (human) = RPS6KA2 KD1 KD2 (human) (UniProt Q15349)
INSR (human) = INSR (human) (UniProt P06213)
Chain of INSR (human) (P06213 whole entry, looked up): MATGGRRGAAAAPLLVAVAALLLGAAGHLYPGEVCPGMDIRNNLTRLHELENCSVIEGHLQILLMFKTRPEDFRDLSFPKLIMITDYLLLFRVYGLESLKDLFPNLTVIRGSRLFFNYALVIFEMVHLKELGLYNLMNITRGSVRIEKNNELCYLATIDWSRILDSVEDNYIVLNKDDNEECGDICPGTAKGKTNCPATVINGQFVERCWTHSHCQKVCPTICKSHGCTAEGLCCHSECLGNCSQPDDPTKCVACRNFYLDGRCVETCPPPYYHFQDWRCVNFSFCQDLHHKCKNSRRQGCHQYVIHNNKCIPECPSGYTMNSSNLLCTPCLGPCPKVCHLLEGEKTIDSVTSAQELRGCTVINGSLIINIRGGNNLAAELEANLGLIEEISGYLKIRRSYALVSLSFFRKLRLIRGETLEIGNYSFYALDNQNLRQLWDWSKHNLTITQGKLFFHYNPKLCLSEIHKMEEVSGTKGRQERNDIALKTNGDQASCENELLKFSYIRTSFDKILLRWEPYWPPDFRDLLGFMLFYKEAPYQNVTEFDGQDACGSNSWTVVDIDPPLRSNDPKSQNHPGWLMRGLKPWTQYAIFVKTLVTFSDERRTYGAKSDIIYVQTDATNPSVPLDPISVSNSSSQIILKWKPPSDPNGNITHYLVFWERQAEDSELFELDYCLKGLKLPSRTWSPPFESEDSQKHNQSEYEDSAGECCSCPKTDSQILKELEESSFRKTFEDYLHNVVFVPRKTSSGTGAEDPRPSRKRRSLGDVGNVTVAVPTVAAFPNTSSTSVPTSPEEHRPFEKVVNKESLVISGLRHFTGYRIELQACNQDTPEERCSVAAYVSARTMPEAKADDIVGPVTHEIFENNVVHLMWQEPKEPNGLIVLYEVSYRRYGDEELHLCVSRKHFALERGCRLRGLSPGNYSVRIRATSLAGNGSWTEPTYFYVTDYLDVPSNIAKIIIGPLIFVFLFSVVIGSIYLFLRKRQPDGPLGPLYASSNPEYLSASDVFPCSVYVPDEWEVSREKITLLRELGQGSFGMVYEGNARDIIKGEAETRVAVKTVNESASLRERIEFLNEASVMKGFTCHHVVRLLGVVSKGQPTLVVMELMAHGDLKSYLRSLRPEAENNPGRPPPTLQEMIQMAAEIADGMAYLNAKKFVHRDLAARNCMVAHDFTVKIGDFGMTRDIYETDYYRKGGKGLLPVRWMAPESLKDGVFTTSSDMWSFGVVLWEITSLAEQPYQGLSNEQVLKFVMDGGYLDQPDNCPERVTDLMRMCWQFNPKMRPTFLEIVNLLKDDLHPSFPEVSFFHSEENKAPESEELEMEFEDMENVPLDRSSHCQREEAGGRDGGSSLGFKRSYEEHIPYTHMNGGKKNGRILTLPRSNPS

FGR (human) = FGR (human) (UniProt P09769)
MAPK9 (human) = MAPK9 (human) (UniProt P45984)
EPHB1 (human) = EPHB1 (human) (UniProt P54762)
MYLK2 (human) = MYLK2 (human) (UniProt Q9H1R3)
PNCK (human) = PNCK (human) (UniProt Q6P2M8)
CDK3 CCNE1 (human) = CDK3 CCNE1 (human) (UniProt Q00526+P24864)
MAPK11 (human) = MAPK11 (human) (UniProt Q15759)
PRKG1 (human) = PRKG1 (human) (UniProt Q13976)
Chain of PRKG1 (human) (Q13976 whole entry, looked up): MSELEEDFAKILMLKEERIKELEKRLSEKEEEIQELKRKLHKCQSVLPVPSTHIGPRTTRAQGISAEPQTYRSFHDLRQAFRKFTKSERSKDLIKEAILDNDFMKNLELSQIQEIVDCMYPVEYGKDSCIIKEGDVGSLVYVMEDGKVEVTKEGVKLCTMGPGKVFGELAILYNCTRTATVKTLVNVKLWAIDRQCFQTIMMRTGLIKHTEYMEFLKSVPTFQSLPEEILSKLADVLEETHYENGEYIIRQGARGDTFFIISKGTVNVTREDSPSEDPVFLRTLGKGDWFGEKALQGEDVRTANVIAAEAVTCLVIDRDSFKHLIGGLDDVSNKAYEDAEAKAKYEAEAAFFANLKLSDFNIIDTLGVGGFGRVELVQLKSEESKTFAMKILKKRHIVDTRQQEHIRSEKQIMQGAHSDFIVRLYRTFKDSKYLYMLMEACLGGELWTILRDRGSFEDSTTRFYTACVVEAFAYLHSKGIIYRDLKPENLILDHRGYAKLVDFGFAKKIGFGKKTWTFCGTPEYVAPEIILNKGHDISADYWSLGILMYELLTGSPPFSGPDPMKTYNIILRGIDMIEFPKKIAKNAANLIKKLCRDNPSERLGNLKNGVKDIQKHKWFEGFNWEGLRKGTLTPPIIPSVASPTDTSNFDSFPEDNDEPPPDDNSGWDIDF

CSNK1G1 (human) = CSNK1G1 (human) (UniProt Q9HCP0)
HIPK3 (human) = HIPK3 (human) (UniProt Q9H422)
NEK11 (human) = NEK11 (human) (UniProt Q8NG66)
AURKC (human) = AURKC (human) (UniProt Q9UQB9)
GRK5 (human) = GRK5 (human) (UniProt P34947)
CSNK1E (human) = CSNK1E (human) (UniProt P49674)
Chain of CSNK1E (human) (P49674 whole entry, looked up): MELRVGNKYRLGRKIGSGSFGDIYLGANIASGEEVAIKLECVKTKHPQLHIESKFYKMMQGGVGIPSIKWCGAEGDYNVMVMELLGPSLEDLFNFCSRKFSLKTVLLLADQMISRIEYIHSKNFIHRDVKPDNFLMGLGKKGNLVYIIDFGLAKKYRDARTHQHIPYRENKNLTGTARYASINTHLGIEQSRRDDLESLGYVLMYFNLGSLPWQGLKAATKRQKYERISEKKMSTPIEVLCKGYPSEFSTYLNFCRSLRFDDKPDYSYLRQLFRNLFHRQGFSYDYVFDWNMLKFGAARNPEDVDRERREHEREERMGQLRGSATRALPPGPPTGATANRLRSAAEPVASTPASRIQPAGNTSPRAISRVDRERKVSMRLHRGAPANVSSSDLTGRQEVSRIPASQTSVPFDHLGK

CAMK1 (human) = CAMK1 (human) (UniProt Q14012)
Chain of CAMK1 (human) (Q14012 whole entry, looked up): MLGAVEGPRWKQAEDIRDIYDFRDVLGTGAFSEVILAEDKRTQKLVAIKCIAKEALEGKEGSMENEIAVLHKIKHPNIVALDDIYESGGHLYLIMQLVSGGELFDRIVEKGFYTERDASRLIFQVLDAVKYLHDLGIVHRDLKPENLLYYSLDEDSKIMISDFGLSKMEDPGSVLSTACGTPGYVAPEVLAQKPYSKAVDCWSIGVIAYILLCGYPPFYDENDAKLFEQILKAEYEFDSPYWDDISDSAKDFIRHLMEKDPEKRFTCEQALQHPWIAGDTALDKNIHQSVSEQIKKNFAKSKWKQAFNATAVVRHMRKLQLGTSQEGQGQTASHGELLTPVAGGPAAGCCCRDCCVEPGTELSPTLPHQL

BMX (human) = BMX (human) (UniProt P51813)
SGK2 (human) = SGK2 (human) (UniProt Q9HBY8)
MLTK (human) = MLTK (human) (UniProt Q9NYL2)
TXK (human) = TXK (human) (UniProt P42681)
CSK (human) = CSK (human) (UniProt P41240)

## Cc1cncc2cccc(S(=O)(=O)N3CCCN(C(=O)CN)C[C@H]3C)c12
FLT1 (human)
  residual activity: 96.9%
EPHA1 (human)
  residual activity: 89.2%
BRSK1 (human)
  residual activity: 94.2%
MAP2K2 (human)
  residual activity: 106%
PRKCH (human)
  residual activity: 34.4%
STK33 (human)
  residual activity: 100%
CDK2 CCNA2 (human)
  residual activity: 98.4%
MST1R (human)
  residual activity: 99.3%
MAP3K5 (human)
  residual activity: 106%
DYRK2 (human)
  residual activity: 101%
VRK1 (human)
  residual activity: 102%
PRKCD (human)
  residual activity: 22.4%
DYRK1A (human)
  residual activity: 93.1%
CSNK2A2 (human)
  residual activity: 99.3%
NEK1 (human)
  residual activity: 100%
GRK6 (human)
  residual activity: 85.5%
JAK2 JH1 JH2 (human)
  residual activity: 93.9%
CDK9 CCNK (human)
  residual activity: 103%
EPHA3 (human)
  residual activity: 98.7%
DYRK1B (human)
  residual activity: 101%
RPS6KA2 KD1 KD2 (human)
  residual activity: 89.2%
INSR (human)
  residual activity: 88.9%
FGR (human)
  residual activity: 94.1%
MAPK9 (human)
  residual activity: 106%
EPHB1 (human)
  residual activity: 88.7%
MYLK2 (human)
  residual activity: 101%
PNCK (human)
  residual activity: 101%
CDK3 CCNE1 (human)
  residual activity: 98%
MAPK11 (human)
  residual activity: 101%
PRKG1 (human)
  residual activity: 78.7% and 85%
CSNK1G1 (human)
  residual activity: 92.4%
HIPK3 (human)
  residual activity: 105%
NEK11 (human)
  residual activity: 84.2%
AURKC (human)
  residual activity: 71.9%
GRK5 (human)
  residual activity: 97.1%
CSNK1E (human)
  residual activity: 100%
CAMK1 (human)
  residual activity: 102%
BMX (human)
  residual activity: 94%
SGK2 (human)
  residual activity: 102%
MLTK (human)
  residual activity: 108%
TXK (human)
  residual activity: 103%

## NC(=O)c1cccc(-c2cc(Nc3ccc(OC(F)(F)F)cc3)ncn2)c1
FLT1 (human)
  residual activity: 98.4%
EPHA1 (human)
  residual activity: 90.1%
BRSK1 (human)
  residual activity: 98.4%
MAP2K2 (human)
  residual activity: 92.5%
PRKCH (human)
  residual activity: 98.4%
STK33 (human)
  residual activity: 92.1%
CDK2 CCNA2 (human)
  residual activity: 96.5%
MST1R (human)
  residual activity: 111%
MAP3K5 (human)
  residual activity: 90.3%
DYRK2 (human)
  residual activity: 78.7%
VRK1 (human)
  residual activity: 97.9%
PRKCD (human)
  residual activity: 83.1%
DYRK1A (human)
  residual activity: 101%
CSNK2A2 (human)
  residual activity: 92.7%
NEK1 (human)
  residual activity: 89.6%
GRK6 (human)
  residual activity: 101%
JAK2 JH1 JH2 (human)
  residual activity: 104%
CDK9 CCNK (human)
  residual activity: 106%
EPHA3 (human)
  residual activity: 97.5%
DYRK1B (human)
  residual activity: 97.9%
RPS6KA2 KD1 KD2 (human)
  residual activity: 96.2%
INSR (human)
  residual activity: 105%
FGR (human)
  residual activity: 96.8%
EPHB1 (human)
  residual activity: 105%
MYLK2 (human)
  residual activity: 97.1%
PNCK (human)
  residual activity: 109%
CDK3 CCNE1 (human)
  residual activity: 98.8%
MAPK11 (human)
  residual activity: 105%
PRKG1 (human)
  residual activity: 92.9% and 98.4%
CSNK1G1 (human)
  residual activity: 97.8%
HIPK3 (human)
  residual activity: 104%
NEK11 (human)
  residual activity: 98.3%
AURKC (human)
  residual activity: 101%
GRK5 (human)
  residual activity: 109%
CSNK1E (human)
  residual activity: 103%
CSK (human)
  residual activity: 104%
CAMK1 (human)
  residual activity: 97.5%
BMX (human)
  residual activity: 107%
SGK2 (human)
  residual activity: 116%
MLTK (human)
  residual activity: 102%
TXK (human)
  residual activity: 111%

## COc1ccc2c(c1)/C(=C/c1cnc[nH]1)C(O)=N2
FLT1 (human)
  residual activity: 73.9%
EPHA1 (human)
  residual activity: 97.3%
BRSK1 (human)
  residual activity: 47.1%
MAP2K2 (human)
  residual activity: 108%
PRKCH (human)
  residual activity: 111%
STK33 (human)
  residual activity: 74.7%
MAP3K5 (human)
  residual activity: 103%
DYRK2 (human)
  residual activity: 76.9%
VRK1 (human)
  residual activity: 91.2%
PRKCD (human)
  residual activity: 95.5%
DYRK1A (human)
  residual activity: 70.4%
CSNK2A2 (human)
  residual activity: 77.5%
NEK1 (human)
  residual activity: 84.4%
GRK6 (human)
  residual activity: 85.2%
JAK2 JH1 JH2 (human)
  residual activity: 88.9%
CDK9 CCNK (human)
  residual activity: 59.4%
EPHA3 (human)
  residual activity: 93.3%
DYRK1B (human)
  residual activity: 53.1%
RPS6KA2 KD1 KD2 (human)
  residual activity: 44.3%
FGR (human)
  residual activity: 80.4%
MAPK9 (human)
  residual activity: 101%
EPHB1 (human)
  residual activity: 92.2%
MYLK2 (human)
  residual activity: 21%
PNCK (human)
  residual activity: 86.3%
CDK3 CCNE1 (human)
  residual activity: 35.2%
MAPK11 (human)
  residual activity: 103%
PRKG1 (human)
  residual activity: 91.7% and 99%
CSNK1G1 (human)
  residual activity: 106%
HIPK3 (human)
  residual activity: 101%
NEK11 (human)
  residual activity: 84.8%
AURKC (human)
  residual activity: 67.8%
GRK5 (human)
  residual activity: 97%
CSNK1E (human)
  residual activity: 80%
CSK (human)
  residual activity: 96.1%
CAMK1 (human)
  residual activity: 103%
BMX (human)
  residual activity: 100%
SGK2 (human)
  residual activity: 71.4%
MLTK (human)
  residual activity: 91.4%
TXK (human)
  residual activity: 93.5%

## Fc1ccc(-c2nc3n(c2-c2ccncc2)CCS3)cc1
FLT1 (human)
  residual activity: 84.1%
EPHA1 (human)
  residual activity: 98.2%
BRSK1 (human)
  residual activity: 93.9%
MAP2K2 (human)
  residual activity: 106%
PRKCH (human)
  residual activity: 87.4%
STK33 (human)
  residual activity: 96.5%
CDK2 CCNA2 (human)
  residual activity: 101%
MST1R (human)
  residual activity: 97.3%
MAP3K5 (human)
  residual activity: 105%
DYRK2 (human)
  residual activity: 101%
VRK1 (human)
  residual activity: 86.8%
PRKCD (human)
  residual activity: 99.1%
DYRK1A (human)
  residual activity: 97.5%
CSNK2A2 (human)
  residual activity: 105%
NEK1 (human)
  residual activity: 103%
GRK6 (human)
  residual activity: 103%
JAK2 JH1 JH2 (human)
  residual activity: 93.6%
CDK9 CCNK (human)
  residual activity: 101%
EPHA3 (human)
  residual activity: 112%
DYRK1B (human)
  residual activity: 104%
RPS6KA2 KD1 KD2 (human)
  residual activity: 97.1%
INSR (human)
  residual activity: 91.2%
FGR (human)
  residual activity: 92.6%
MAPK9 (human)
  residual activity: 90.6%
EPHB1 (human)
  residual activity: 106%
MYLK2 (human)
  residual activity: 101%
PNCK (human)
  residual activity: 90.3%
CDK3 CCNE1 (human)
  residual activity: 97%
MAPK11 (human)
  residual activity: 97.2%
PRKG1 (human)
  residual activity: 103% and 95.9%
CSNK1G1 (human)
  residual activity: 86.6%
HIPK3 (human)
  residual activity: 109%
NEK11 (human)
  residual activity: 71.4%
AURKC (human)
  residual activity: 102%
GRK5 (human)
  residual activity: 103%
CSNK1E (human)
  residual activity: 20%
CAMK1 (human)
  residual activity: 107%
BMX (human)
  residual activity: 104%
SGK2 (human)
  residual activity: 105%
MLTK (human)
  residual activity: 100%
TXK (human)
  residual activity: 98.9%
